This assay has as its system PAO1 protein. Format: cell-based, Pseudomonas aeruginosa.

The values that follow come from patent US11058716B2 (priority 2015, dated 2021).

In the case of `N[C@@H](CCC(=O)N[C@@H](CSN=O)C(=O)NCC(=O)O)C(=O)O` [GSNO, nitrosoglutathione], the “overall SNO level of the PAO1 protein” value is given as “increased significantly”.
